Test results as given in US20230026277A1, “COMPOSITION FOR PREVENTION, ALLEVIATION, OR TREATMENT OF RESPIRATORY DISEASE” (MICROX CO., LTD., priority 2019, published 2023).

What was measured:
Assay type in all cases: in vivo
IL-4, IL-5, and IL-13 = test: Cytokines in bronchoalveolar lavage fluid by ELISA, asthma-induced mice
Procedure: (§1) Eight-week-old female […] mice (Orient Bio Korea Inc., Korea) having no certain pathogen were accommodated in an aseptic laminar-flow cabinet, and bred by supplying a standard solid feed ad libitum. When the following experiment was performed, the mice were made to correspond to 7- to 8-weeks old, and all laboratory animals were managed according to the protocol approved by the Institutional Animal Care and Use Committee of the Chonbuk National University Medical School.
(§2) Also, on days 21 and 28 from the experimental starting date, the mice were put into a plastic box (Plexiglas (Rohm & Haas, Philadelphia, Pa.) exposure chamber; 24.5 cm×40.5 cm×15.0 cm), and 1.5% ovalbumin was evaporated using an ultrasonic nebulizer (NE-U12; output 0.8 mL/min; Omron, Japan), and injected into the box for 30 minutes so that the mice inhaled the evaporated ovalbumin (secondary challenge).
After the mice were anesthetized, a thin tube was inserted into the airway, and a piston process was repeated using a syringe filled with 0.2 mL of physiological saline to obtain a bronchoalveolar lavage fluid. The bronchoalveolar lavage fluid obtained through this piston process was stored at −70° C. when it was not immediately used in the experiments.
(§3) A level of cytokines in the bronchoalveolar lavage fluid obtained in Experimental Method 2 was measured using an ELISA kit. Here, ELISA kits specifically manufactured for TNF-α, IL-4, IL-5, and IL-13 were used.
Preparation Example 3 (α,δ-NA-L-G) or α,δ N-acetyl-D-glutamine was orally administered to the asthma-induced mice of Experimental Method 1 at a concentration of 100, 200, 400 or 800 μg/kg/day 30 minutes before a secondary airway challenge, and levels of IL-4, IL-5, and IL-13 were measured through the method described above in Experimental Method 4 24 hours after the secondary challenge. The results are shown in A and B of FIG. 4.

asthma-induced mice [1] = test: Bronchial hypersensitivity reaction (Rrs value, methacholine), asthma-induced mice; settings: oral 200 or 400 μg/kg/day 30 minutes before secondary challenge, 48 hours after, methacholine 5.0 to 50 mg/mL, FIG. 5
Procedure: as §1, §2
45 mg/kg of sodium pentobarbital was intraperitoneally injected into the mice prepared in Experimental Method 1 to anesthetize the mice, and the airways were cut and an 18 gauge needle was inserted into the airways. Thereafter, the needle was connected to a small-sized animal respirator connected to a computer, and the computer system was adjusted to a respiration rate of 150 breaths per minute. Then, methacholine in the form of aerosol was fed at an increasing concentration of 5.0 to 50 mg/mL so that the mice inhaled the methacholine. Then, an airway response was measured, and indicated as an Rrs value.
Preparation Example 3 (α,δ-NA-L-G) or α,δ N-acetyl-D-glutamine was orally administered to the asthma-induced mice of Experimental Method 1 at a concentration of 200 or 400 μg/kg/day 30 minutes before a secondary airway challenge, and the bronchial hypersensitivity reaction was measured 48 hours after the secondary challenge using the method described in Experimental Method 5. The results are shown in A and B of FIG. 5.

asthma-induced mice [2] = test: Lung tissue staining, degree of inflammation (grades 0 to 3), asthma-induced mice; settings: for inflammation score (lung tissue, grades 0 to 3): asthma-induced mice, 48 hours after secondary challenge, OVA group score 3, FIG. 6
Procedure: as §1, §2
A tissue was extracted from each of the mice manufactured in Experimental Method 1, and put into a 10% formalin solution, and reacted for 24 hours to prepare a paraffin block. Thereafter, the paraffin block was microtomed into slices with a size of 3 μm, and each of the slices was attached onto a slide, and heamatoxylin-eosin IHE staining was performed. Then, the slices were observed using a microscope. Here, the degree of inflammation was determined by indicating degrees of inflammation around the airway and blood vessels as grades 0 to 3.
0: There are no inflammatory cells;
1: Inflammatory cells are occasionally observed around the airway and blood vessels;
2: Most of the airway and blood vessels are surrounded by approximately 1 to 5 thin bands of inflammatory cells; and
3: Most of the airway and blood vessels are surrounded by thick bands of inflammatory cells (5 or more).
Preparation Example 3 (α,δ-NA-L-G) was orally administered to the asthma-induced mice of Experimental Method 1 at a concentration of 200 or 400 μg/kg/day 30 minutes before a secondary challenge, and the lung tissue was stained using the method described above in Experimental Method 6 48 hours after the secondary challenge, and the inflammation score was measured. The results are shown in A and B of FIG. 6.

NF-κB and TNF-α = test: NF-κB (Western blot) and TNF-α (ELISA) in asthma-induced mice
Procedure: as §2, §3
A tissue was extracted from each of the mice manufactured in Experimental Method 1, and finely ground to a cell level. Thereafter, the cells were lysed in a cell lysis buffer containing a protease inhibitor to obtain a cell lysate. The cell lysate was centrifuged to obtain protein. Then, an equivalent amount of the proteins obtained from the cells were loaded on an SDS-PAGE gel and electrophoresed. The proteins present in the electrophoresed gel were transferred to a PVDF membrane. The PVDF membrane was washed, and added to a blocking buffer in which 5% skim milk was included in a TBS-T buffer, and incubated at room temperature. Then, the PVDF membrane was incubated at room temperature with an antibody diluted 1:1,000 in a TBS-T buffer containing 3% BSA. Then, the PVDF membrane was washed with a TBS-T buffer, and incubated at room temperature for an hour with a dilute solution containing HRP-bound IgG. The PVDF membrane was washed three times with a TBS-T buffer, and visualized and quantified using an ECL Western blotting detection reagent.
Here, antibodies specific to elastin, caspase-3, collagen, MKP-1, p-cPLA, p-p38, NF-κB(p65), CK2α, GAPDH, or β-actin were used in the Western blot.
Specifically, the secondary challenge (ovalbumin injection) was performed according to the method described above in Experimental Method 1, and the lungs were extracted after an hour, and then measured according to the method described above in Experimental Method 7. The results are shown in A of FIG. 9. Also, the level of TNF-α corresponding to an NK-κB-dependent cytokine was measured by ELISA according to the method described above in Experimental Method 4. The results are shown in B of FIG. 9. […]
The secondary challenge (ovalbumin injection) was performed according to the method described above in Experimental Method 1, and the lungs were extracted after 30 or 60 minutes, and then measured according to the method described above in Experimental Method 7. […] Also, the level of TNF-α corresponding to an NK-κB-dependent cytokine was measured by ELISA according to the method described above in Experimental Method 4. […]

## CC(=O)NC(=O)CC[C@H](NC(C)=O)C(=O)O [Preparation Example 3, 2,5-diacetamido-5-oxopentanoic acid]
IL-4, IL-5, and IL-13; asthma-induced mice, oral 200 μg/kg/day 30 minutes before secondary challenge, measured 24 hours after, FIG. 4A
  levels of IL-4, IL-5, and IL-13: remarkably inhibited
IL-4, IL-5, and IL-13; experiment [5-6], together with siRNA specific to MKP-1, FIG. 13
  expression levels of the cytokines: increased
IL-4, IL-5, and IL-13; experiment [5-6], without MKP-1 siRNA, FIG. 13
  expression levels of the cytokines (IL-4, IL-5, and IL-13): decreased
asthma-induced mice [1]
  Rrs value (bronchial hypersensitivity reaction): remarkably inhibited
asthma-induced mice [2]; oral 200 μg/kg/day
  inflammation score (lung tissue, grades 0 to 3): 2
asthma-induced mice [2]; oral 400 μg/kg/day
  inflammation score (lung tissue, grades 0 to 3): 1
asthma-induced mice [2]; experiment [5-6], together with siRNA specific to MKP-1, FIG. 15
  inflammation-relieving effect (lung tissue): disappeared
asthma-induced mice [2]; experiment [5-6], without MKP-1 siRNA, FIG. 15
  degree of inflammation in the lung tissue: inhibited
NF-κB and TNF-α; 400 μg/kg/day with siRNA specific to MKP-1, FIG. 9
  effect for reducing the levels of NF-κB and TNF-α: not observed
NF-κB and TNF-α; oral daily 400 μg/kg/day, an hour after secondary challenge, FIG. 9A and B
  levels of NF-κB and TNF-α: decreased
